From PubChem BioAssay (NCI)
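The concentration for 50% growth inhibition is given as GI50. TGI marks complete inhibition of growth.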

Tests used:
Assay in all cases: DTP human tumour cell line panel, 384-well format
786-0 renal = tested on: 786-0 renal
A549 NSCLC = tested on: A549 NSCLC
ACHN renal = tested on: ACHN renal
BT-549 breast = tested on: BT-549 breast
CAKI-1 renal = tested on: CAKI-1 renal
CCRF-CEM leukemia = tested on: CCRF-CEM leukemia
COLO 205 colon = tested on: COLO 205 colon
DU-145 prostate = tested on: DU-145 prostate
EKVX NSCLC = tested on: EKVX NSCLC
HCC-2998 colon = tested on: HCC-2998 colon
HCT-116 colon = tested on: HCT-116 colon
HCT-15 colon = tested on: HCT-15 colon
HL-60(TB) leukemia = tested on: HL-60(TB) leukemia
HOP-62 NSCLC = tested on: HOP-62 NSCLC
HOP-92 NSCLC = tested on: HOP-92 NSCLC
HS 578T breast = tested on: HS 578T breast
HT29 colon = tested on: HT29 colon
IGROV1 ovarian = tested on: IGROV1 ovarian
K-562 leukemia = tested on: K-562 leukemia
KM12 colon = tested on: KM12 colon
LOX IMVI melanoma = tested on: LOX IMVI melanoma
M14 melanoma = tested on: M14 melanoma
MALME-3M melanoma = tested on: MALME-3M melanoma
MCF7 breast = tested on: MCF7 breast
MDA-MB-231 breast = tested on: MDA-MB-231 breast
MDA-MB-435 melanoma = tested on: MDA-MB-435 melanoma
MDA-MB-468 breast = tested on: MDA-MB-468 breast
MOLT-4 leukemia = tested on: MOLT-4 leukemia
NCI-H23 lung = tested on: NCI-H23 lung
NCI-H322M lung = tested on: NCI-H322M lung
NCI-H460 NSCLC = tested on: NCI-H460 NSCLC
NCI-H522 lung = tested on: NCI-H522 lung
NCI/ADR-RES ovarian = tested on: NCI/ADR-RES ovarian
OVCAR-3 ovarian = tested on: OVCAR-3 ovarian
OVCAR-4 ovarian = tested on: OVCAR-4 ovarian
OVCAR-8 ovarian = tested on: OVCAR-8 ovarian
PC-3 prostate = tested on: PC-3 prostate
RPMI-8226 leukemia = tested on: RPMI-8226 leukemia
RXF 393 renal = tested on: RXF 393 renal
SF-268 CNS = tested on: SF-268 CNS
SF-295 CNS = tested on: SF-295 CNS
SF-539 CNS = tested on: SF-539 CNS
SK-MEL-28 melanoma = tested on: SK-MEL-28 melanoma
SK-MEL-5 melanoma = tested on: SK-MEL-5 melanoma
SK-OV-3 ovarian = tested on: SK-OV-3 ovarian
SN12C renal = tested on: SN12C renal
SNB-19 CNS = tested on: SNB-19 CNS
SNB-75 CNS = tested on: SNB-75 CNS
SR leukemia = tested on: SR leukemia
SW-620 colon = tested on: SW-620 colon
T-47D breast = tested on: T-47D breast
TK-10 renal = tested on: TK-10 renal
U251 glioblastoma = tested on: U251 glioblastoma
UACC-62 melanoma = tested on: UACC-62 melanoma
UO-31 renal = tested on: UO-31 renal

## O=C(NCc1ccc(S(=O)(=O)c2cc(F)cc(F)c2)cc1)c1ccc2nccn2c1
786-0 renal
  GI50: < 10 nM
  TGI: < 10 nM
A549 NSCLC
  GI50: < 10 nM
  TGI: 20.3 nM
ACHN renal
  GI50: < 10 nM
  TGI: < 10 nM
BT-549 breast
  GI50: < 10 nM
  TGI: < 10 nM
CAKI-1 renal
  GI50: < 10 nM
  TGI: < 10 nM
CCRF-CEM leukemia
  GI50: < 10 nM
  TGI: < 10 nM
COLO 205 colon
  GI50: < 10 nM
  TGI: < 10 nM
DU-145 prostate
  GI50: < 10 nM
  TGI: < 10 nM
EKVX NSCLC
  GI50: < 10 nM
  TGI: 12.4 nM
HCC-2998 colon
  GI50: < 10 nM
  TGI: < 10 nM
HCT-116 colon
  GI50: < 10 nM
  TGI: < 10 nM
HCT-15 colon
  GI50: < 10 nM
  TGI: < 10 nM
HL-60(TB) leukemia
  GI50: < 10 nM
  TGI: < 10 nM
HOP-62 NSCLC
  GI50: < 10 nM
  TGI: < 10 nM
HOP-92 NSCLC
  GI50: 20.4 nM
  TGI: 43.5 nM
HS 578T breast
  GI50: < 10 nM
  TGI: < 10 nM
HT29 colon
  GI50: < 10 nM
  TGI: 10.2 nM
IGROV1 ovarian
  GI50: < 10 nM
  TGI: < 10 nM
K-562 leukemia
  GI50: < 10 nM
  TGI: < 10 nM
KM12 colon
  GI50: < 10 nM
  TGI: < 10 nM
LOX IMVI melanoma
  GI50: < 10 nM
  TGI: 25.7 nM
M14 melanoma
  GI50: < 10 nM
  TGI: < 10 nM
MALME-3M melanoma
  GI50: < 10 nM
  TGI: 27.4 nM
MCF7 breast
  GI50: < 10 nM
  TGI: < 10 nM
MDA-MB-231 breast
  GI50: < 10 nM
  TGI: 18.3 nM
MDA-MB-435 melanoma
  GI50: < 10 nM
  TGI: < 10 nM
MDA-MB-468 breast
  GI50: < 10 nM
  TGI: < 10 nM
MOLT-4 leukemia
  GI50: < 10 nM
  TGI: < 10 nM
NCI-H23 lung
  GI50: < 10 nM
  TGI: < 10 nM
NCI-H322M lung
  GI50: < 10 nM
  TGI: < 10 nM
NCI-H460 NSCLC
  GI50: 11.6 nM
  TGI: 26.3 nM
NCI-H522 lung
  GI50: < 10 nM
  TGI: < 10 nM
NCI/ADR-RES ovarian
  GI50: < 10 nM
  TGI: < 10 nM
OVCAR-3 ovarian
  GI50: < 10 nM
  TGI: < 10 nM
OVCAR-4 ovarian
  GI50: < 10 nM
  TGI: 11.4 nM
OVCAR-8 ovarian
  GI50: < 10 nM
  TGI: < 10 nM
PC-3 prostate
  GI50: < 10 nM
  TGI: < 10 nM
RPMI-8226 leukemia
  GI50: < 10 nM
  TGI: < 10 nM
RXF 393 renal
  GI50: < 10 nM
  TGI: < 10 nM
SF-268 CNS
  GI50: < 10 nM
  TGI: < 10 nM
SF-295 CNS
  GI50: < 10 nM
  TGI: < 10 nM
SF-539 CNS
  GI50: < 10 nM
  TGI: < 10 nM
SK-MEL-28 melanoma
  GI50: < 10 nM
  TGI: < 10 nM
SK-MEL-5 melanoma
  GI50: < 10 nM
  TGI: < 10 nM
SK-OV-3 ovarian
  GI50: < 10 nM
  TGI: < 10 nM
SN12C renal
  GI50: < 10 nM
  TGI: < 10 nM
SNB-19 CNS
  GI50: < 10 nM
  TGI: < 10 nM
SNB-75 CNS
  GI50: < 10 nM
  TGI: < 10 nM
SR leukemia
  GI50: < 10 nM
  TGI: < 10 nM
SW-620 colon
  GI50: < 10 nM
  TGI: < 10 nM
T-47D breast
  GI50: < 10 nM
  TGI: < 10 nM
TK-10 renal
  GI50: < 10 nM
  TGI: < 10 nM
U251 glioblastoma
  GI50: < 10 nM
  TGI: < 10 nM
UACC-62 melanoma
  GI50: < 10 nM
  TGI: < 10 nM
UO-31 renal
  GI50: < 10 nM
  TGI: < 10 nM
